Legend:
NOXA = NOXA mRNA (RT-PCR) and protein (Western blot) levels; assay type: cell-based, human; settings: for peak NOXA mRNA levels, fold higher than VEH control / NOXA protein levels, fold higher than VEH control: 40 μM α-TEA; for NOXA protein levels, fold higher than VEH control: 24 h
Procedure: Whole-cell protein extracts were prepared as described previously (Yu et al., 1999), and 50 μg of protein was loaded per lane, separated using SDS-PAGE on a 10-15% gel under reducing conditions, and electroblotted onto a nitrocellulose membrane ([…] Optitran BA-S-supported nitrocellulose; Schleicher and Schuell, Keene, N.H.). Equal loading was verified using GAPDH antibody. Primary rabbit antibodies with specificity for PARP and primary goat antibody with specificity for Arg were purchased from Santa Cruz Biotechnology (Santa Cruz, Calif.). Horseradish peroxidase conjugated goat anti-rabbit or horseradish goat anti-mouse secondary antibody was purchased from Jackson Immunoresearch Laboratory (West Grove, Pa.). Horseradish peroxidase-conjugated donkey anti-goat serum was purchased from Santa Cruz Biotechnology. Immune complexes were visualized using enhanced chemiluminescence detection (Pierce Chemical Co., Rockford, Ill.). Fold differences in level of chemiluminescence were determined by densitometric analyses.
Total RNA was isolated from cells using RNeasy Protect Mini kit (Qiagen, Valencia, Calif.) according to manufacturer's instruction. Reverse transcription was performed as described above except using 15 μg of total RNA as template. Polymerase chain reaction (PCR) with Arg primers 30 cycles in volumes of 50 μl according to the manufacturer's protocol (Taq PCR Master Mix Kit; Qiagen, Valencia, Calif.). Primers used in the analyses were: Arg, forward (5′-CAGTGATGCCTCCACCTCAA-3′; SEQ ID NO:2) and reverse (5′-TTTCCCTCTCCCCTCAGAAAT-3′; SEQ ID NO:3) and for β-actin (loading control), forward (5′-GGCGGCACCACCATGTACCCT-3′; SEQ ID NO:4) and reverse (5′-AGGGGCCGGACTCGTCATACT-3′; SEQ ID NO:5) (Invitrogen, Carlsbad, Calif.). The amplification reaction involved denaturation at 95° C. for 30 seconds, annealing at 52° C. for 30 seconds, and extension at 72° C. for 30 seconds (for Arg) using a PTC-225 thermal cycler (MJ Research, San Francisco, Calif.). The PCR products were resolved on 1% agarose gels and visualized by ethidium bromide staining.
To confirm the microarray data, semi-quantative RT-PCR and Western blot analyses were carried out to measure the change in mRNA and protein level of NOXA using estrogen nonresponsive MDA-MB-435 and estrogen responsive MCF-7 human breast cancer cells. Assays were preformed as describide above using NOXA specific antibodies (purchased from Santa Cruz Biotechnology (Santa Cruz, Calif.)) and NOXA sepcific PCR primers (forward (5′-CGTGTGTAGTTGGCATCTCC-3′) and reverse (5′-GCCCCAAGTAACCCTCCTAT-3′)). In MCF-7 cells, α-TEA induced NOXA mRNA starting at 3 h, peaking at 15 h (FIG. 9A, left top panel). In MDA-MB-435 cells, α-TEA induced NOXA mRNA starting at 3 h, peaking at 6 h (FIG. 9A, right top panel). In both cell lines, protein levels of NOXA were increased at 15 and 24 h after α-TEA treatments (FIG. 9C, top panel). […] In MCF-7 cells, peak NOXA mRNA levels at 15 h were 1.5-fold higher than the VEH control and NOXA protein levels at 24 h were 7.6-fold higher than the VEH control. Upregulation of NOXA protein levels is correlated with PARP cleavage which is an indicator of cells undergoing apoptosis (Wolf and Green, 1999) (FIG. 9C, second panel). GAPDH levels served to help verify lane loads (FIG. 9C, bottom panel). […] NOXA protein levels were also assessed in other cell lines including MDA-MB-231 and T47D human breast cancer cell lines, immortalized, but nontumorigenic MCF-10A breast epithelial cells as well as human normal mammary epithelial cell line (HMEC) (Table 3). The ability of α-TEA to induce NOXA and induce apoptosis plus the p53 status based on the literature is summarized (Table 3).

survivin = assay: Survivin protein level by immunoblot; assay type: cell-based, human; settings: LNCaP and PC-3-GFP cells, 40 μM α-TEA, time-dependent
Source text: Antibodies to human Flip and survivin used in these experiments were purchased from Santa Cruz Biotechnology (Santa Cruz, Calif.).

Cc1c(C)c2c(c(C)c1OCC(=O)O)CC[C@@](C)(CCC[C@H](C)CCC[C@H](C)CCCC(C)C)O2 [α-TEA]
Ability of α-TEA to induce NOXA expression (NOXA; HMEC): No | Ability of α-TEA to induce NOXA expression (NOXA; MCF-7): Yes | peak NOXA mRNA levels, fold higher than VEH control (NOXA; MCF-7 cells, 15 h): 1.5 fold | NOXA protein levels, fold higher than VEH control (NOXA; MCF-7 cells): 7.6 fold | Ability of α-TEA to induce NOXA expression (NOXA; MCF-10A): Yes | Ability of α-TEA to induce NOXA expression (NOXA; MDA-MB-231): Yes | Ability of α-TEA to induce NOXA expression (NOXA; MDA-MB-435): Yes | peak NOXA mRNA levels, fold higher than VEH control (NOXA; MDA-MB-435 cells, 6 h): 2.6 fold | NOXA protein levels, fold higher than VEH control (NOXA; MDA-MB-435 cells): 16.8 fold | Ability of α-TEA to induce NOXA expression (NOXA; T47D): No | protein levels of survivin (survivin): downregulated

Reference: patent publication US20100292316A1, “IMPROVED THERAPEUTIC METHODS AND COMPOSITIONS COMPRISING CHROMAN RING COMPOUNDS” (Research Development Foundation, priority 2007, published 2010)
